Test results published in patent US12065456B2, “Boron-containing pharmacophore” (MASSACHUSETTS INSTITUTE OF TECHNOLOGY, priority 2019, dated 2024).
Like-named read-outs stand apart in the source and are kept apart here.

Tests used:
[1] = Oxidation of boronic acids by hydrogen peroxide, continuous UV-absorbance assay; assay type: physicochemical; conditions: for kmonoanion (rel) / kmonoanion: experimental; for kmonoanion (rel): relative to PBA; for kmonoanion: second-order rate constant for oxidation of monoanionic tetrahedral state; for kobs: second-order rate constant of oxidation by hydrogen peroxide, physiological pH
Excerpt: Hydrogen peroxide is known to be the major reactive oxygen species in humans. The oxidation of phenylboronic acids by aqueous hydrogen peroxide yields a phenol and boric acid. […] The oxidation rates were first-order with respect to hydrogen peroxide and each boronic acid. The ensuing second-order rate constants varied with pH and were half-maximal for PBA and 2-HMPBA when pH=pKa. Oxidation rates increase in a pH-dependent manner after and before a pH-independent regime (FIG. 2). This observation is consistent with the existence of two pH-independent rate constants, k1 and k2. Whereas the oxidation rates of PBA and 2-HMPBA at physiological pH are similar to those for biological thiols, the comparative stability of CPBA to oxidation is unexpected (Table 1).
For PBA, 2-HMPBA, and 2-CPBA, the transition from a neutral trigonal state to a monoanionic tetrahedral state occurs when the pH surpasses the pKa (FIG. 3). […] The oxaborolone is differentiated by its existence as a monoanionic tetrahedral species above pH 1. The second-order rate constants for the oxidation for the monoanionic tetrahedral states of PBA, 2-HMPBA, 2-CPBA, and 2-CMPBA ((2-carboxymethyl)-phenylboronic acid) are listed in Table 2.

[2] = Affinity for saccharides, 1H-NMR titration; assay type: binding
Excerpt: (§1) PBA and 2-HMPBA are employed often for their ability to form esters with saccharides. As the affinity of boronic acids for saccharides is generally greatest near their pKa value, the low pKa1 of 2-CPBA portends a low affinity. The results of ^1H-NMR titration experiments with D-fructose, D-glucose, and N-acetylneuraminic acid (Neu5Ac) are consistent with this expectation (Table 3).

[3] = oxidation of biological thiols, physiological pH; marked with footnote a; cited from earlier work
Transthyretin (TTR) = target: T1, Transthyretin (TTR) (Homo sapiens, UniProt P02766); experiment: Inhibition of transthyretin fibril formation, light-scattering at 400 nm; assay type: biochemical; conditions: pH 4.4, 96-h incubation at 37° C.
T1 construct: made in house
Protocol: TTR was expressed and purified as previously reported (Smith, T. P., et al, J. Med. Chem., 2017, 60, 7820-7834). Inhibition of fibril formation was assayed as previously reported (Smith, et al.). Briefly, TTR (7.2 μM) was incubated with varying ratios of kinetic stabilizers (BOL or tafamidis) in 10 mM sodium phosphate buffer, pH 7.6, containing potassium chloride (100 mM) for 30 min at 37° C. Solutions were 2-fold diluted with 100 mM sodium acetate buffer, pH 4.4, containing potassium chloride (100 mM). Quadruplicate samples were plated in a clear 96-well plate. Fibril formation was assessed by measuring light-scattering at 400 nm immediately following acidification and after a 96-h incubation at 37° C. Data were analyzed with equation 1 below by comparing the change in light-scattering over the incubation with a control containing the protein and no inhibitor. The standard deviation of measurements was propagated through calculation in equation 1.

[4] = target: T2, calf intestinal phosphatase (CIP) (Bos taurus, UniProt P19111); experiment: Inhibition of calf intestinal phosphatase, 4-nitrophenyl phosphate substrate; assay type: biochemical; conditions: pH 7.5, substrate 1.0 mM
T2 construct: purchased Promega (Fitchburg, WI)
T2 sequence (P19111 20-506): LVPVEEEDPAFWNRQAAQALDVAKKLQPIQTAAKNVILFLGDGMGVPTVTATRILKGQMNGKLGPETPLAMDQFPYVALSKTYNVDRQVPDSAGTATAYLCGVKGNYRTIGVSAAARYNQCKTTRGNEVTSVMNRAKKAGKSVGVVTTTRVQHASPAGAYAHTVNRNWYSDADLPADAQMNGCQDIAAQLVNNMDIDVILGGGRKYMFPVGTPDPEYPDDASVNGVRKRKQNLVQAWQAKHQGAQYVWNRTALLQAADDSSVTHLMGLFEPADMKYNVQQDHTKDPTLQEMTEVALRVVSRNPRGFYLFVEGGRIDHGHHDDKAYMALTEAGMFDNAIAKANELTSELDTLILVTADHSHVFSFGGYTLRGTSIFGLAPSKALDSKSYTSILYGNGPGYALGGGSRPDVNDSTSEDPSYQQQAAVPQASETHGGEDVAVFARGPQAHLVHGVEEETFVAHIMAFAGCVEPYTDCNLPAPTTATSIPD
Protocol: (§2) 2-CPBA was tested as an inhibitor of pig liver esterase (PLE). This test used 4-nitrophenyl acetate (PNPA) as a substrate. In addition, 2-CPBA was tested as an inhibitor of calf intestinal phosphatase (CIP). This test used 4-nitrophenyl phosphate. Substrates and PLE (15 units/mg) were obtained from Sigma-Aldrich (St. Louis, MO) as dry powders. CIP was obtained from Promega (Fitchburg, WI) as a solution (1 unit/μL). The hydrolysis of the two chromogenic substrates was monitored with a Tecan M1000 plate reader by measuring the absorbance of the 4-nitrophenol product at a wavelength of 405 nm. Assays were performed in a buffer of 20 mM Tris-HCl buffer, pH 7.5, in a clear, flat bottomed 96-well plate in 200-μL volumes. Solutions for CIP assays contained enzyme (0.003 units/μL) and substrate (1.0 mM). Solutions for PLE assays contained enzyme (0.01 units/mL) and substrate (1.0 mM). Both enzymes were assayed for inhibition by adding 2-CPBA (to a concentration of 0.78-100 mM) from a 250 mM stock solution that had its pH adjusted to that of the assay buffer. Initial velocities were measured by calculating ΔA405 nm over time. Velocities were fitted to the 4-parameter logistic equation with Prism software from GraphPad (San Diego, CA). No enzyme and uninhibited velocities were used to constrain the top and bottom parameters. Values of Ki were 80 mM for CIP and 10 mM for PLE.

[5] = Affinity for saccharides, overall comparison; assay type: binding
Excerpt: as §1

pig liver esterase (PLE) = target: T3, pig liver esterase (PLE) (Sus scrofa, UniProt Q29550); experiment: Inhibition of pig liver esterase, 4-nitrophenyl acetate substrate; assay type: biochemical; conditions: pH 7.5, substrate 1.0 mM
T3 sequence (Q29550 19-566): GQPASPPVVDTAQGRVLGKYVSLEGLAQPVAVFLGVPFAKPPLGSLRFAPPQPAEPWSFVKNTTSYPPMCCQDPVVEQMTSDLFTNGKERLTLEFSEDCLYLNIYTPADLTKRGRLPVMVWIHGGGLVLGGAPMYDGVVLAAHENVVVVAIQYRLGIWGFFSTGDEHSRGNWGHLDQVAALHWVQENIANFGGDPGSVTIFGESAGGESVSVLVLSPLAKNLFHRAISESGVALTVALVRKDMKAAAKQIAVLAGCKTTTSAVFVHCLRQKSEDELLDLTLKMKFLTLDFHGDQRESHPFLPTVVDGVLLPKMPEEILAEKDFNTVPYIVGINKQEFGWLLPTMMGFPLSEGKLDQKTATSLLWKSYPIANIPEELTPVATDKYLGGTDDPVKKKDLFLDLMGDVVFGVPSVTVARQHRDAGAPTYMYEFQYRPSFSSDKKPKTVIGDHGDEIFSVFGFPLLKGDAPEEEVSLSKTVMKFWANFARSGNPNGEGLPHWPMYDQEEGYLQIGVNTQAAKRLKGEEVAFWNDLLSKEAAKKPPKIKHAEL
Protocol: as §2

ribonuclease A (RNase A) = target: T4, ribonuclease A (RNase A) (Bos taurus, UniProt P61823); experiment: Inhibition of catalysis by ribonuclease A; assay type: biochemical; conditions: pH 6.0, substrate 6-FAM-(dA)rU(dA)2-6-TAMRA
T4 sequence (P61823 27-150): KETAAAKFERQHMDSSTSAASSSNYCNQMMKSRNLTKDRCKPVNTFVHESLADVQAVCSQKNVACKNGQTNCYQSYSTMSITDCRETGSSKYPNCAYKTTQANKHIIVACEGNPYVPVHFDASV
Protocol: The catalytic activity of ribonuclease A (RNase A) was assayed using 6-FAM-(dA)rU(dA)2-6-TAMRA as a substrate (Kelemen, B. R.; et al. Nucleic Acids Res. 1999, 27, 3696-3701). Assays were performed in 50 mM MES-NaOH buffer, pH 6.0, containing NaCl (100 mM) and RNase A (1 pM) in 200-μL solutions in a black, flat-bottomed 96-well plate and with a Tecan M1000 plate reader. An aqueous solution of 2-CPBA was prepared by dilution from a 500 mM stock that had its pH adjusted to that of the assay buffer. Initial velocities were measured from <5% turnover. Velocities were fitted to the 4-parameter logistic equation using Prism software from GraphPad. Uninhibited velocities were used to constrain the top parameter.

SMILES	kmonoanion (rel) [1]	kmonoanion [1] [M⁻¹ s⁻¹]	kobs [1] [M⁻¹ s⁻¹]	D-fructose, Ka [2] [M⁻¹]	D-glucose, Ka [2] [M⁻¹]	Neu5Ac, Ka [2] [M⁻¹]	kobs [3] [M⁻¹ s⁻¹]	other results
OB(O)c1ccccc1 [PBA, phenylboronic acid]	1	46	2.4	128 ± 20	5 ± 1	13 ± 1	–	–
N[C@@H](CCC(=O)N[C@@H](CS)C(=O)NCC(=O)O)C(=O)O [Glutathione]	–	–	–	–	–	–	0.89	–
N[C@@H](CS)C(=O)O [Cysteine]	–	–	–	–	–	–	2.9	–
OCc1ccccc1B(O)O [Compound 2-HMPBA, (2-hydroxymethyl)phenylboronic acid]	0.10	4.8	2.4	336 ± 43	28 ± 4	43 ± 5	–	–
O=C(O)Cc1ccccc1B(O)O [Compound 2-CMPBA, (2-carboxymethyl)-phenylboronic acid]	0.00088	0.041	0.041	–	–	–	–	–
O=C(O)c1ccc2nc(-c3cc(Cl)cc(Cl)c3)oc2c1 [tafamidis]	–	–	–	–	–	–	–	% Fibril formation (Transthyretin (TTR); TTR:Compound ratio 1:1): 29 ± 5%; % Fibril formation (Transthyretin (TTR); TTR:Compound ratio 1:2): 1 ± 5%
O=C(O)c1ccccc1B(O)O [Compound 2-CPBA, 2-carboxyphenylboronic acid]	0.0000035	0.00016	0.00015	23 ± 2	1.7 ± 0.1	6.0 ± 0.5	–	Ki [4]: 80 mM; loss in affinity for saccharides versus 2-HMPBA ([5]; versus 2-HMPBA): about 13 fold; loss in affinity for saccharides versus PBA ([5]; versus PBA): about 4 fold; Ki (pig liver esterase (PLE)): 10 mM; IC50 (ribonuclease A (RNase A)): 27 mM
CC(=O)N[C@@H](CS)C(=O)O [N-Acetylcysteine]	–	–	–	–	–	–	0.16	–
